Measurements taken from patent EP4711371A1 (priority 2023, dated 2024).
Read-outs that look alike come from different tables or passages of the source.

Columns and labels:
Format in all cases: cell-based
T47D [1] = assay: cells; settings: Homo sapiens, 120 h, read-out: T47D IC50
Experimental: (§1) Test Example 2 In vitro proliferation inhibition assay of the camptothecin derivatives (Payload) of the present invention on tumor cells 1. Instruments and Reagents
(§2) 2. Experimental Procedure • a. Plating & culture: MDA-MB-453 (purchased from: Xiehe, catalog number: 1101HUM-PUMCO00016)/T47D (Kebai, CBP60397)/HT1376 cells (purchased from: Kebai, catalog number: CBP60310) were cultured into 96-well plates by a density of 1×10^3 /2×10^3 /1×10^3 cells per100 µL, and 200 µL of PBS was added to the outermost circle (to reduce the volatilization of the culture medium), and cultured at 37°C, 5% CO2 incubator for 24 h; • b. Drug Addition & Incubation: The 96-well flat-bottom plate was retrieved. The culture medium in the wells was aspirated, and 100 µL of the ADC drug/payload (diluted in culture medium) was added to each well. The plate was then incubated at 37°C, 5% CO2 incubator for 5 days. 3. Detection and data processing • a. The 96-well plate was retrieved. The culture medium was removed, and 100 µL of detection reagent (CCK8:medium= 1:9) was added to each well. The plate was then placed in a 37°C, 5% CO2 incubator for 4 hours; • b. The optical density (OD) at 450 nm was measured using a microplate reader (model: CEY0017), and the data was recorded with Excel. • c. Graphpad Prism 9.0 was used to analyze and organize the data.

HT1376 = assay: In vitro proliferation inhibition assay of camptothecin derivatives (Payload), Test Example 2; settings: Homo sapiens, HT-1376, 120 h, read-out: HT1376 IC50
Experimental: as §1, §2

MDA-MB-453 [2] = assay: as above; settings: Homo sapiens, MDA-MB-453, 120 h, read-out: MDA-MB-453 IC50
Experimental: as §1, §2

T47D [3] = assay: cells; settings: Homo sapiens, 96 h, payload, cultured 4 days, CCK-8, read-out: T47D IC50
Excerpt: (§3) The control compounds used in the experiment were DXD (synthesized from EXD according to the synthesis method of patent EP2907824B1. EXD was purchased from MedChemExpress, catalog number: HY-13631A) and SN38 (purchased from Bide Pharmatech, catalog number BD8481). Their structural formulas are [drawing 515] respectively.
(§4) The cell lines used in this experiment were human breast cancer cells SK-BR-3, T47D, MDA-MB-453, human malignant melanoma cells A375, human lung squamous carcinoma cells NCI-H1703, and human gastric cancer cells NCI-N87. Cell suspensions were prepared in fresh cell culture medium containing 10% FBS and then diluted to a density of 5 × 10^4 cells/mL, 10×10^4 cells/mL, 100 µL per well was added to a 96-well cell culture plate (Thermo catalog number: 167425), and cultured at 37°C with 5% carbon dioxide for 24 h.
(§5) The test compounds of the present invention and the control compounds were each prepared to 10 mM stock solutions in DMSO, and the drugs were diluted with 5% FBS 1640 culture medium in a gradient of 50, 10, 2, 0.4, 0.08, 0.016, 0.0032, 0.00064, 0.000128, and 0 µM, with two replicates for each well.
(§6) 50 µL of cell supernatant was pipetted from each 96-well plate, followed by the addition of 50 µL of compound dilutions at final […] of 25, 5, 1, 0.2, 0.04, 0.008, 0.0016, 0.00032, 0.000064, and 0 µM. After mixing, the cells were cultured in a constant temperature CO2 incubator for 4 days. Cell supernatant was then added with 100 µL of detection reagent (5% FBS1640 medium and CCK-8 solution in a 10:1 ratio) and incubated in an incubator for 4 hours. […] was read on a microplate reader (TECAN, Spark), and data were analyzed using Graphpad Prism 8 software.

MDA-MB-453 [4] = assay: In vitro proliferation inhibition assay of camptothecin derivatives (Payload), Test Example 1; settings: Homo sapiens, MDA-MB-453, 96 h; payload, cultured 4 days, CCK-8; read-out: MDA-MB-453 IC50
Excerpt: as §3, §4, §5, §6

[5] = payload, incubated 5 days, CCK8, OD 450 nm

Compound	IC50 (T47D [1])	IC50 (HT1376)	IC50 (MDA-MB-453 [2])	IC50 (T47D [1]; [5])	IC50 (HT1376; [5])	IC50 (MDA-MB-453 [2]; [5])	IC50 (T47D [3])	IC50 (MDA-MB-453 [4])
CC[C@@]1(O)C(=O)OCc2c1cc1n(c2=S)Cc2c-1nc1cc(F)c(OC)cc1c2CN [Compound 12]	0.093 nM	1.97 nM	0.312 nM					
CC[C@@]1(O)C(=O)OCc2c1cc1n(c2=S)Cc2c-1nc1cc3c(cc1c2CN)OCCO3 [Compound 13]	0.059 nM	10.9 nM	0.797 nM					
CC[C@@]1(O)C(=O)OCc2c1cc1n(c2=S)Cc2c-1nc1cc(Cl)c(C)cc1c2CN [Compound 14]	0.25 nM	13.8 nM	5.23 nM					
CC[C@@]1(O)C(=O)OCc2c1cc1n(c2=S)Cc2c-1nc1cc(F)c(F)cc1c2CN [Compound 15]	0.157 nM	9.76 nM	1.1 nM					
CC[C@@]1(O)C(=O)OCc2c1cc1n(c2=S)Cc2c-1nc1cc(F)c(C)cc1c2[C@@H](C)N [Compound 16]	0.141 nM	3.87 nM	0.481 nM					
CC[C@@]1(O)C(=O)OCc2c1cc1n(c2=S)Cc2c-1nc1cc(F)c(C)cc1c2CNC(=O)[C@@H](O)C1CC1 [Compound 19]	0.268 nM	9.36 nM	1.01 nM					
CC[C@@]1(O)C(=O)OCc2c1cc1n(c2=S)Cc2c-1nc1cc(F)c(C)cc1c2CNC(=O)[C@H](O)C1CC1 [Compound 20]	0.245 nM	0.917 nM	8.06 nM					
CC[C@@]1(O)C(=O)OCc2c1cc1n(c2=S)Cc2c-1nc1cc(F)c(C)cc1c2CNC(=O)[C@H]1C[C@@H](O)C1 [Compound 21]	0.108 nM	11.6 nM	0.294 nM					
CC[C@@]1(O)C(=O)OCc2c1cc1n(c2=S)Cc2c-1nc1cc(F)c(C)cc1c2CNC(=O)[C@H](C)O [Compound 22]	0.116 nM	5.38 nM	0.362 nM					
CC[C@@]1(O)C(=O)OCc2c1cc1n(c2=S)Cc2c-1nc1cc(F)c(C)cc1c2CNC(=O)[C@@H](C)O [Compound 23]	0.117 nM	5.94 nM	0.343 nM					
CC[C@@]1(OC(=O)Cn2cc(F)c(=O)[nH]c2=O)C(=O)OCc2c1cc1n(c2=S)Cc2c-1nc1cc(F)c(C)cc1c2CN [Compound 24]				3.6 nM	25.4 nM	78.4 nM		
CC[C@@]1(OC(=O)Cn2cc(F)c(=O)[nH]c2=O)C(=O)OCc2c1cc1n(c2=S)Cc2c-1nc1cc(F)c(C)cc1c2CNC(=O)CO [Compound 25]				2.6 nM	8.39 nM	103 nM		
CC[C@@]1(O)C(=O)OCc2c1cc1n(c2=S)Cc2c-1nc1cc(F)c(C)cc1c2CNC(=S)CO [Compound 26]	< 0.003 nM	0.014 nM	1 nM					
CC[C@@]1(O)C(=O)OCc2c1cc1n(c2=S)Cc2c-1nc1cc(F)c(C)cc1c2CNCCO [Compound 27]	0.152 nM	2.5 nM	0.17 nM					
CC[C@@]1(O)C(=O)OCc2c1cc1n(c2=S)Cc2c-1nc1cc(F)c(C)cc1c2CNC(=O)C1CCC(O)C1 (some centres unmarked) [Compound 28]	0.15 nM	42.4 nM	6.17 nM					
[2H]C([2H])(O)C(=O)NCc1c2c(nc3cc(F)c(C)cc13)-c1cc3c(c(=S)n1C2)COC(=O)[C@]3(O)CC [Compound 29]	0.014 nM	5.98 nM	0.183 nM					
CC[C@@]1(O)C(=O)OCc2c1cc1n(c2=S)Cc2c-1nc1cc(F)c(OC)cc1c2CNC(=O)[C@H]1C[C@@H](O)C1 [Compound 30]	0.391 nM	66.7 nM	1.01 nM					
CC[C@@]1(O)C(=O)OCc2c1cc1n(c2=S)Cc2c-1nc1cc(F)c(OC)cc1c2CNC(=O)CO [Compound 31]	0.142 nM	19.5 nM	0.337 nM					

Compound	IC50 (T47D [1])	IC50 (HT1376)	IC50 (MDA-MB-453 [2])	IC50 (T47D [1]; [5])	IC50 (HT1376; [5])	IC50 (MDA-MB-453 [2]; [5])	IC50 (T47D [3])	IC50 (MDA-MB-453 [4])
CC[C@@]1(O)C(=O)OCc2c1cc1n(c2=S)Cc2c-1nc1cc(F)c(OC)cc1c2CNC(=O)[C@H](C)O [Compound 32]	0.089 nM	15.3 nM	0.417 nM					
CC[C@@]1(O)C(=O)OCc2c1cc1n(c2=S)Cc2c-1nc1cc(F)c(OC)cc1c2CNC(=O)OCCO [Compound 33]	0.392 nM	45.4 nM	0.599 nM					
CC[C@@]1(O)C(=O)OCc2c1cc1n(c2=S)Cc2c-1nc1cc(F)c(OC)cc1c2CNC(=O)[C@@H](C)O [Compound 34]	0.151 nM	10.1 nM	0.652 nM					
CC[C@@]1(O)C(=O)OCc2c1cc1n(c2=S)Cc2c-1nc1cc(F)c(OC)cc1c2CNC(=S)CO [Compound 35]		4.94 nM	~1.22 nM					
CC[C@@]1(O)C(=O)OCc2c1cc1n(c2=S)Cc2c-1nc1cc3c(cc1c2CNC(=O)CO)OCCO3 [Compound 36]	0.119 nM	10.3 nM	0.029 nM					
CC[C@@]1(O)C(=O)OCc2c1cc1n(c2=S)Cc2c-1nc1cc3c(cc1c2CNC(=O)OCCO)OCCO3 [Compound 37]	0.054 nM	13.5 nM	0.013 nM					
CC[C@@]1(O)C(=O)OCc2c1cc1n(c2=S)Cc2c-1nc1cc3c(cc1c2CNC(=O)[C@H]1C[C@@H](O)C1)OCCO3 [Compound 38]	0.234 nM	38.4 nM	0.121 nM					
CC[C@@]1(O)C(=O)OCc2c1cc1n(c2=S)Cc2c-1nc1cc3c(cc1c2CNC(=S)CO)OCCO3 [Compound 39]	0.047 nM	8.69 nM	0.482 nM					
CC[C@@]1(O)C(=O)OCc2c1cc1n(c2=S)Cc2c-1nc1cc3c(cc1c2CNC(=O)[C@H](C)O)OCCO3 [Compound 40]	0.053 nM	18.2 nM	0.021 nM					
CC[C@@]1(O)C(=O)OCc2c1cc1n(c2=S)Cc2c-1nc1cc3c(cc1c2CNC(=O)[C@@H](C)O)OCCO3 [Compound 41]	0.231 nM	24.1 nM	0.943 nM					
CC[C@@]1(O)C(=O)OCc2c1cc1n(c2=S)Cc2c-1nc1cc(Cl)c(C)cc1c2CNC(=O)[C@H]1C[C@@H](O)C1 [Example 42]	0.845 nM	40.2 nM	4.18 nM					
CC[C@@]1(O)C(=O)OCc2c1cc1n(c2=S)Cc2c-1nc1cc(Cl)c(C)cc1c2CNC(=O)[C@H](C)O [Example 43]	0.089 nM	9.94 nM	1.64 nM					
CC[C@@]1(O)C(=O)OCc2c1cc1n(c2=S)Cc2c-1nc1cc(F)c(F)cc1c2CNC(=O)[C@H]1C[C@@H](O)C1 [Example 44]	0.195 nM	5.05 nM	0.674 nM					
CC[C@@]1(O)C(=O)OCc2c1cc1n(c2=S)Cc2c-1nc1cc(F)c(F)cc1c2CNC(=O)[C@H](C)O [Example 45]	2.79 nM	3.79 nM	4.97 nM					
CCC1(O)CC(=O)OCc2c1cc1n(c2=O)Cc2c-1nc1cc(F)c(C)cc1c2CN (centres unmarked) [Example 47]							0.956 nM	4.37 nM
CCC1(O)CC(=O)OCc2c1cc1n(c2=O)Cc2c-1nc1cc(F)c(C)cc1c2CCCCO (centres unmarked) [Example 48]							0.832 nM	17.7 nM
CCC1(O)CC(=O)OCc2c1cc1n(c2=O)Cc2c-1nc1cc(F)c(F)cc1c2CN (centres unmarked) [Example 49]							11 nM	24.5 nM
